Measurements as given in PubChem BioAssay AID1918953 (Molecular Pharmacology Branch, DTP, NCI, 2023).
pIC50: −log10 of the molar value.

Test system: MDA-MB-231 complex spheroid viability
Assay: Anticancer human tumor MDA-MB-231/ATCC cell line growth inhibition;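 note: drug exposure lasted 7 days starting on day 3 of spheroid growth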
Settings: for pIC50: curve of first compound; for viability, T/C: stronger effect = lower value
How it was run: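 Complex spheroids of tumor cells with HUVEC and human MSCs, exposed to iadademstat combined with other agents. Each agent tested in half-log steps from near clinical Cmax (else 10 microM top), DMSO ≤0.25%.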

[1] = second compound 0.1 µM, first compound 0.00949 µM
[2] = second compound 0.1 µM, first compound 0.03 µM
[3] = second compound 0.1 µM, first compound 0.0949 µM
[4] = second compound 0.1 µM, first compound 0.3 µM
[5] = second compound 0.316 µM, first compound 0.00949 µM
[6] = second compound 0.316 µM, first compound 0.03 µM
[7] = second compound 0.316 µM, first compound 0.0949 µM
[8] = second compound 0.316 µM, first compound 0.3 µM
[9] = second compound 1 µM, first compound 0.00949 µM
[10] = second compound 1 µM, first compound 0.03 µM
[11] = second compound 1 µM, first compound 0.0949 µM
[12] = second compound 1 µM, first compound 0.3 µM
[13] = second compound 3.16 µM, first compound 0.00949 µM
[14] = second compound 3.16 µM, first compound 0.03 µM
[15] = second compound 3.16 µM, first compound 0.0949 µM
[16] = second compound 3.16 µM, first compound 0.3 µM
[17] = second compound 10 µM, first compound 0.00949 µM
[18] = second compound 10 µM, first compound 0.03 µM
[19] = second compound 10 µM, first compound 0.0949 µM
[20] = second compound 10 µM, first compound 0.3 µM

Nc1ccccc1NC(=O)c1ccc(CNC(=O)OCc2cccnc2)cc1 + NC1CCC(NC2CC2c2ccccc2)CC1
pIC50 (second compound 0.1 µM): 7.21 | pIC50 (second compound 0.316 µM): 7.18 | pIC50 (second compound 1 µM): 7.29 | pIC50 (second compound 3.16 µM): 7.41 | pIC50 (second compound 10 µM): 7.58 | viability, T/C [1]: 89.4% | viability, T/C [2]: 61% | viability, T/C [3]: 39% | viability, T/C [4]: 31.5% | viability, T/C (second compound 0.1 µM, first compound 0.949 µM): 15.9% | viability, T/C (second compound 0.1 µM, first compound 3 µM): 3.58% | viability, T/C [5]: 86.2% | viability, T/C [6]: 64.6% | viability, T/C [7]: 39.6% | viability, T/C [8]: 29.4% | viability, T/C (second compound 0.316 µM, first compound 0.949 µM): 16.3% | viability, T/C (second compound 0.316 µM, first compound 3 µM): 2.82% | viability, T/C [9]: 85% | viability, T/C [10]: 58% | viability, T/C [11]: 37% | viability, T/C [12]: 26.4% | viability, T/C (second compound 1 µM, first compound 0.949 µM): 14.3% | viability, T/C (second compound 1 µM, first compound 3 µM): 2.97% | viability, T/C [13]: 72.7% | viability, T/C [14]: 54.1% | viability, T/C [15]: 35.7% | viability, T/C [16]: 20.6% | viability, T/C (second compound 3.16 µM, first compound 0.949 µM): 10.1% | viability, T/C (second compound 3.16 µM, first compound 3 µM): 1.4% | viability, T/C [17]: 63.2% | viability, T/C [18]: 47.7% | viability, T/C [19]: 32.2% | viability, T/C [20]: 15.1% | viability, T/C (second compound 10 µM, first compound 0.949 µM): 7.15% | viability, T/C (second compound 10 µM, first compound 3 µM): 0.5%

Nc1ccn(C2OC(CO)C(O)C2(F)F)c(=O)n1 (stereo not given) + NC1CCC(NC2CC2c2ccccc2)CC1
pIC50 (second compound 0.1 µM): > 9.02 | pIC50 (second compound 0.316 µM): > 9.02 | pIC50 (second compound 1 µM): > 9.02 | pIC50 (second compound 3.16 µM): > 9.02 | pIC50 (second compound 10 µM): > 9.02 | viability, T/C (second compound 0.1 µM, first compound 0.000949 µM): 23.4% | viability, T/C (second compound 0.1 µM, first compound 0.003 µM): 18.9% | viability, T/C [1]: 17.4% | viability, T/C [2]: 15.9% | viability, T/C [3]: 8.32% | viability, T/C [4]: 6.14% | viability, T/C (second compound 0.316 µM, first compound 0.000949 µM): 24.3% | viability, T/C (second compound 0.316 µM, first compound 0.003 µM): 19.6% | viability, T/C [5]: 19% | viability, T/C [6]: 16% | viability, T/C [7]: 8.93% | viability, T/C [8]: 6.74% | viability, T/C (second compound 1 µM, first compound 0.000949 µM): 22.2% | viability, T/C (second compound 1 µM, first compound 0.003 µM): 17.9% | viability, T/C [9]: 18.2% | viability, T/C [10]: 13.6% | viability, T/C [11]: 8.49% | viability, T/C [12]: 7.33% | viability, T/C (second compound 3.16 µM, first compound 0.000949 µM): 23.7% | viability, T/C (second compound 3.16 µM, first compound 0.003 µM): 18.9% | viability, T/C [13]: 17.2% | viability, T/C [14]: 12.8% | viability, T/C [15]: 9.01% | viability, T/C [16]: 6.68% | viability, T/C (second compound 10 µM, first compound 0.000949 µM): 19.2% | viability, T/C (second compound 10 µM, first compound 0.003 µM): 19.2% | viability, T/C [17]: 14.4% | viability, T/C [18]: 10.3% | viability, T/C [19]: 6.87% | viability, T/C [20]: 5.84%

O=C(c1cc(Cc2n[nH]c(=O)c3ccccc23)ccc1F)N1CCN(C(=O)C2CC2)CC1 + NC1CCC(NC2CC2c2ccccc2)CC1
pIC50 (second compound 0.1 µM): < 5.00 | pIC50 (second compound 0.316 µM): < 5.00 | pIC50 (second compound 1 µM): < 5.00 | pIC50 (second compound 3.16 µM): 5.12 | pIC50 (second compound 10 µM): 5.61 | viability, T/C (second compound 0.1 µM, first compound 0.0316 µM): 101% | viability, T/C (second compound 0.1 µM, first compound 0.1 µM): 94.5% | viability, T/C (second compound 0.1 µM, first compound 0.316 µM): 87.5% | viability, T/C (second compound 0.1 µM, first compound 1 µM): 79.3% | viability, T/C (second compound 0.1 µM, first compound 3.16 µM): 66.8% | viability, T/C (second compound 0.1 µM, first compound 10 µM): 56.2% | viability, T/C (second compound 0.316 µM, first compound 0.0316 µM): 98.9% | viability, T/C (second compound 0.316 µM, first compound 0.1 µM): 102% | viability, T/C (second compound 0.316 µM, first compound 0.316 µM): 93.5% | viability, T/C (second compound 0.316 µM, first compound 1 µM): 82.1% | viability, T/C (second compound 0.316 µM, first compound 3.16 µM): 66.1% | viability, T/C (second compound 0.316 µM, first compound 10 µM): 52.7% | viability, T/C (second compound 1 µM, first compound 0.0316 µM): 93.1% | viability, T/C (second compound 1 µM, first compound 0.1 µM): 94.5% | viability, T/C (second compound 1 µM, first compound 0.316 µM): 84.3% | viability, T/C (second compound 1 µM, first compound 1 µM): 74.5% | viability, T/C (second compound 1 µM, first compound 3.16 µM): 67.1% | viability, T/C (second compound 1 µM, first compound 10 µM): 57.6% | viability, T/C (second compound 3.16 µM, first compound 0.0316 µM): 80.8% | viability, T/C (second compound 3.16 µM, first compound 0.1 µM): 77.5% | viability, T/C (second compound 3.16 µM, first compound 0.316 µM): 74.2% | viability, T/C (second compound 3.16 µM, first compound 1 µM): 70.2% | viability, T/C (second compound 3.16 µM, first compound 3.16 µM): 56.8% | viability, T/C (second compound 3.16 µM, first compound 10 µM): 47.9% | viability, T/C (second compound 10 µM, first compound 0.0316 µM): 64.4% | viability, T/C (second compound 10 µM, first compound 0.1 µM): 61.9% | viability, T/C (second compound 10 µM, first compound 0.316 µM): 63% | viability, T/C (second compound 10 µM, first compound 1 µM): 55.3% | viability, T/C (second compound 10 µM, first compound 3.16 µM): 47.4% | viability, T/C (second compound 10 µM, first compound 10 µM): 37.6%
